Experiments:
[1] = tested on: NPC Chinese Hamster Ovary (CHO) cells; assay: Relative lysosomal volume via LysoTracker in NPC CHO cells; type: cell-based; conditions: 1 mM, 72 hours, p <0.01 versus untreated NPC1-null, FIG. 1
Method: NPC Chinese Hamster Ovary (CHO) cells were treated in vitro for 72 hours with 1 mM of acetyl-DL-leucine, acetyl-L-leucine, acetyl-D-leucine, DL-leucine, L-leucine, and D-leucine, respectively. Relative lysosomal volume was quantified via LysoTracker.
Data presented in FIG. 1 show the results for each treatment, with lysosomal volume expressed as fold change relative to untreated wild-type […]. The asterisks (**) indicate a p-values of <0.01 versus untreated NPC1-null.

[2] = tested on: acute unilateral labyrinthectomy; conditions: rat, by activation of the vestibulo-cerebellum and deactivation of the posterolateral thalamus (Gunther 2015); cited from earlier work
[3] = tested on: Migraine and Vestibular Migraine; assay: Case study Example 4: Tanganil for migraine and vestibular migraine; type: in vivo, human; conditions: before treatment with Tanganil
Source text: Patient Details: • Sex: […] • Six tablets of Tanganil® per day: two in the morning, two at noon and two in the evening for one week; thereafter, ten tablets of Tanganil® per day: four in the morning, three at noon and three in the evening. Tanganil® tablets as described in Example 1.

cerebellar ataxia = conditions: patients with cerebellar ataxia (Schniepp 2015); cited from earlier work
cerebellar symptoms = conditions: cited from earlier work
[4] = tested on: ataxia of different etiologies; conditions: patients with ataxia, responders (Becker-Bense 2015); cited from earlier work
[5] = tested on: Niemann-Pick Type C (NPC); conditions: 12 patients with NPC (Bremova 2015); cited from earlier work
vertigo = conditions: cited from earlier work
Migraine with Aura = assay: Case study Example 3: Tanganil for migraine with aura; type: in vivo, human; conditions: 600 mg taken once a week; before treatment with Tanganil

Compound | lysosomal volume (LysoTracker), fold change relative to untreated wild-type [1] | improvement of attacks of migraine headache with pain medication [3] | also measured
CC(C)C[C@H](N)C(=O)O [L-leucine] | significantly reduced | – | –
CC(=O)N[C@@H](CC(C)C)C(=O)O [acetyl-L-leucine] | significantly reduced | – | effect on postural compensation [2]: significant effect
CC(=O)N[C@H](CC(C)C)C(=O)O [acetyl-D-leucine] | significantly reduced | – | –
CC(=O)Oc1ccccc1C(=O)O [Aspirin] | – | no improvement | –
CC(C)C[C@@H](N)C(=O)O [D-leucine] | significantly reduced | – | –
Cc1c(N(C)CS(=O)(=O)[O-])c(=O)n(-c2ccccc2)n1C.[Na+] [Novalgin] | – | improvement | –
CC(=O)NC(CC(C)C)C(=O)O (racemic) [acetyl-DL-leucine] | significantly reduced | – | gait variability (cerebellar ataxia): improves gait variability; benefit in cerebellar patients (cerebellar symptoms; another case series (Pelz 2015)): did not find benefit; cerebellar symptoms (cerebellar symptoms; case series (Strupp 2013)): improvement of cerebellar symptoms; brain metabolism (PET) [4]: increased metabolism in the midbrain and lower brainstem; ataxia [5]: significant improvement in ataxia; cases with improvement in vertigo symptomology (vertigo; clinical results reported by various authors, including disappearance of vertigo attacks): more than 95 % of cases; safety profile (vertigo; used in France to treat acute vertigo since 1957): excellent safety profile
CC(C)Cc1ccc(C(C)C(=O)O)cc1 (stereo not drawn) [Ibuprofen] | – | no improvement | response of headache attacks (Migraine with Aura): responding
CC(C)CC(N)C(=O)O (racemic) [DL-leucine] | significantly reduced | – | –
